Assay results reported in the supplement of paper PMC11208160.

Assay: recombinant UMI read abundance after kanamycin selection (control-corrected) (log10(CPM+1)); higher = more efficient recombination; extreme values may be limits of the assay; sequences stand for … in AGTGCAGAGAAAATCGGCCAGTTTTCTCTGCCTGCAGTCCGCATGCCGTGGGACCCCTTGGGTTCTAACCTGTTGCCTAGATTTATGCAGCGGACTGCCTTTCTCCCAAAGTGATAAACCGG…AGGTTGGTTTCACT; site = the 11-nt donor
How it was run: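 Sequenced counts of recombinant UMIs were turned into CPM, averaged across replicates and scaled with control-derived factors. The reported figure is log10(CPM+1). Those UMIs, each 12 nt long, tagged donor and donor-binding-loop pairs on a plasmid with a promoterless kanamycin gene, screened as a pool in Escherichia coli with IPTG (0.07 mM) plus kanamycin or without selection.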
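Also: IS621 bridge recombinase in Escherichia coli cells against a fixed T5 target plasmid.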

Question: With “TAAAGTCCATGGACCGGTTTTCCCGGTAATCCGTATTTGCA (site TAAAGTCCTTG)” as the sequence, how does the “recombinant UMI read abundance (log10)” value read?
Answer: The value was 1.07.

Question: For “AGGCTTTCATGGACCGGTTTTCCCGGTAATCCGTATTTGAC (site AGCCTTTCTGT)”, which “recombinant UMI read abundance (log10)” value is on record?
Answer: The value was 0.212.

Question: For “GCTTCTACATGGACCGGTTTTCCCGGTAATCCGTATTTGTA (site GCTTCTACTTA)”, which “recombinant UMI read abundance (log10)” value is on record?
Answer: Its value is 0.541.

Question: Which “recombinant UMI read abundance (log10)” value does the source give for “GGCCACTCATGGACCGGTTTTCCCGGTAATCCGTATTTGTT (site GGCCACACTAA)” here?
Answer: Its value is 0.0252.

Question: For “ATTCAGACATGGACCGGTTTTCCCGGTAATCCGTATTTGGT (site ATTAAGACTAC)”, which “recombinant UMI read abundance (log10)” value is on record?
Answer: Its value is 0.402.

Question: Which “recombinant UMI read abundance (log10)” value does the source give for “ATCTACACATGGACCGGTTTTCCCGGTAATCCGTATTTGCT (site TTCTACACTAG)” here?
Answer: The value was 2.05.

Question: With “CTACTAGCATGGACCGGTTTTCCCGGTAATCCGTATTTGGA (site CTACTATCTTC)” as the sequence, how does the “recombinant UMI read abundance (log10)” value read?
Answer: The value was 2.05.

Question: With “TCATAGTCATGGACCGGTTTTCCCGGTAATCCGTATTTGCA (site TCATATTCTTG)” as the sequence, how does the “recombinant UMI read abundance (log10)” value read?
Answer: The value was 0.

Question: For “AGGAAACCATGGACCGGTTTTCCCGGTAATCCGTATTTGTT (site CGGAATCCTAA)”, which “recombinant UMI read abundance (log10)” value is on record?
Answer: The value was 0.

Question: With “TGTACACCATGGACCGGTTTTCCCGGTAATCCGTATTTGCC (site TGTACACCTGA)” as the sequence, how does the “recombinant UMI read abundance (log10)” value read?
Answer: Its value is 0.

Question: For “GGAACGTCATGGACCGGTTTTCCCGGTAATCCGTATTTGTT (site GGTACGTCTAA)”, which “recombinant UMI read abundance (log10)” value is on record?
Answer: The value was 0.00512.

Question: For “TCCCCAACATGGACCGGTTTTCCCGGTAATCCGTATTTGTC (site TCCCCAACTGA)”, which “recombinant UMI read abundance (log10)” value is on record?
Answer: Its value is 0.

Question: With “GTGGTCGCATGGACCGGTTTTCCCGGTAATCCGTATTTGCG (site GTGGTCGCTCG)” as the sequence, how does the “recombinant UMI read abundance (log10)” value read?
Answer: Its value is 1.15.

Question: With “CACTTGGCATGGACCGGTTTTCCCGGTAATCCGTATTTGGC (site CACTTGGCTTC)” as the sequence, how does the “recombinant UMI read abundance (log10)” value read?
Answer: The value was 0.166.

Question: Which “recombinant UMI read abundance (log10)” value does the source give for “GGGGATACATGGACCGGTTTTCCCGGTAATCCGTATTTGAT (site GGGGATACTAT)” here?
Answer: The value was 1.2.

Question: With “AGAACTACATGGACCGGTTTTCCCGGTAATCCGTATTTGAC (site AGTACTACTGT)” as the sequence, how does the “recombinant UMI read abundance (log10)” value read?
Answer: The value was 1.37.

Question: Which “recombinant UMI read abundance (log10)” value does the source give for “GTAGGTACATGGACCGGTTTTCCCGGTAATCCGTATTTGAC (site GAAGGTACTGT)” here?
Answer: The value was 0.

Question: With “TAACTGACATGGACCGGTTTTCCCGGTAATCCGTATTTGAT (site TAACTGACTAT)” as the sequence, how does the “recombinant UMI read abundance (log10)” value read?
Answer: Its value is 1.54.

Question: Which “recombinant UMI read abundance (log10)” value does the source give for “GGTACGTCATGGACCGGTTTTCCCGGTAATCCGTATTTGGT (site GGTACGTCTAC)” here?
Answer: The value was 1.33.

Question: With “ATGACGACATGGACCGGTTTTCCCGGTAATCCGTATTTGCA (site AGGAAGACTTG)” as the sequence, how does the “recombinant UMI read abundance (log10)” value read?
Answer: Its value is 0.

Question: For “TAGCTAGCATGGACCGGTTTTCCCGGTAATCCGTATTTGAA (site TAGCTAGCTTG)”, which “recombinant UMI read abundance (log10)” value is on record?
Answer: Its value is 0.0037.

Question: For “CAACTAACATGGACCGGTTTTCCCGGTAATCCGTATTTGGA (site CCACTAACTTC)”, which “recombinant UMI read abundance (log10)” value is on record?
Answer: Its value is 0.226.

Question: With “GGATCGACATGGACCGGTTTTCCCGGTAATCCGTATTTGCC (site GGATTGACTGG)” as the sequence, how does the “recombinant UMI read abundance (log10)” value read?
Answer: The value was 0.

Question: For “TTGGCTGCATGGACCGGTTTTCCCGGTAATCCGTATTTGTG (site TTAGCTGCTCA)”, which “recombinant UMI read abundance (log10)” value is on record?
Answer: The value was 0.0254.

Question: For “GTCCACCCATGGACCGGTTTTCCCGGTAATCCGTATTTGTT (site GGCCACCCTAA)”, which “recombinant UMI read abundance (log10)” value is on record?
Answer: The value was 0.0212.

Question: With “GTAGTCACATGGACCGGTTTTCCCGGTAATCCGTATTTGCG (site GTAGTCCCTCG)” as the sequence, how does the “recombinant UMI read abundance (log10)” value read?
Answer: The value was 0.0197.

Question: With “CGCTAGGCATGGACCGGTTTTCCCGGTAATCCGTATTTGAC (site CGCTAGGCTGT)” as the sequence, how does the “recombinant UMI read abundance (log10)” value read?
Answer: Its value is 1.08.

Question: With “GCTACGCCATGGACCGGTTTTCCCGGTAATCCGTATTTGTA (site GCGACGCCTTA)” as the sequence, how does the “recombinant UMI read abundance (log10)” value read?
Answer: The value was 0.162.

Question: Which “recombinant UMI read abundance (log10)” value does the source give for “GTATGCGCATGGACCGGTTTTCCCGGTAATCCGTATTTGTA (site GTATGCACTTA)” here?
Answer: The value was 1.8.

Question: With “ACAGTCTCATGGACCGGTTTTCCCGGTAATCCGTATTTGGA (site ACAGTATCTTG)” as the sequence, how does the “recombinant UMI read abundance (log10)” value read?
Answer: The value was 0.

Question: With “CGAGTCACATGGACCGGTTTTCCCGGTAATCCGTATTTGGG (site CCAGTCACTCC)” as the sequence, how does the “recombinant UMI read abundance (log10)” value read?
Answer: Its value is 0.0249.

Question: For “TGCTATGCATGGACCGGTTTTCCCGGTAATCCGTATTTGGT (site TGCTAAGCTAC)”, which “recombinant UMI read abundance (log10)” value is on record?
Answer: The value was 0.0239.

Question: With “TTTCGCACATGGACCGGTTTTCCCGGTAATCCGTATTTGCG (site TTTCGCACTCG)” as the sequence, how does the “recombinant UMI read abundance (log10)” value read?
Answer: The value was 0.00398.

Question: Which “recombinant UMI read abundance (log10)” value does the source give for “ATTGTTGCATGGACCGGTTTTCCCGGTAATCCGTATTTGCT (site ATTGTTGCTAG)” here?
Answer: Its value is 2.37.

Question: With “ACGTTAGCATGGACCGGTTTTCCCGGTAATCCGTATTTGTG (site GCGTTAGCTCA)” as the sequence, how does the “recombinant UMI read abundance (log10)” value read?
Answer: Its value is 0.298.

Question: Which “recombinant UMI read abundance (log10)” value does the source give for “GAAGATTCATGGACCGGTTTTCCCGGTAATCCGTATTTGTG (site GAAGATTCTCA)” here?
Answer: The value was 2.81.

Question: With “CCCCACTCATGGACCGGTTTTCCCGGTAATCCGTATTTGTA (site CCCCACGCTTA)” as the sequence, how does the “recombinant UMI read abundance (log10)” value read?
Answer: Its value is 0.00566.

Question: For “CTAGTATCATGGACCGGTTTTCCCGGTAATCCGTATTTGTC (site CTAGTATCTGA)”, which “recombinant UMI read abundance (log10)” value is on record?
Answer: The value was 3.35.

Question: With “CAATCCCCATGGACCGGTTTTCCCGGTAATCCGTATTTGCT (site CAATGCCCTAG)” as the sequence, how does the “recombinant UMI read abundance (log10)” value read?
Answer: Its value is 0.

Question: With “CTAGGACCATGGACCGGTTTTCCCGGTAATCCGTATTTGGG (site CCAGGACCTCC)” as the sequence, how does the “recombinant UMI read abundance (log10)” value read?
Answer: Its value is 0.00872.

Question: For “ACCTCAGCATGGACCGGTTTTCCCGGTAATCCGTATTTGGG (site ATCTCAGCTCC)”, which “recombinant UMI read abundance (log10)” value is on record?
Answer: The value was 0.0291.

Question: For “CAGCGGTCATGGACCGGTTTTCCCGGTAATCCGTATTTGCC (site CAGCGGTCTGG)”, which “recombinant UMI read abundance (log10)” value is on record?
Answer: Its value is 2.76.

Question: Which “recombinant UMI read abundance (log10)” value does the source give for “CAGTCGACATGGACCGGTTTTCCCGGTAATCCGTATTTGGG (site CAGTCGGCTCC)” here?
Answer: Its value is 0.0315.

Question: For “AGGCAGACATGGACCGGTTTTCCCGGTAATCCGTATTTGCA (site AGGGAGACTTG)”, which “recombinant UMI read abundance (log10)” value is on record?
Answer: Its value is 0.0572.

Question: With “TAGCTAGCATGGACCGGTTTTCCCGGTAATCCGTATTTGAA (site TGGCTAGCTTT)” as the sequence, how does the “recombinant UMI read abundance (log10)” value read?
Answer: Its value is 0.0087.

Question: Which “recombinant UMI read abundance (log10)” value does the source give for “GTAGGTACATGGACCGGTTTTCCCGGTAATCCGTATTTGAC (site GTAGGTACTGA)” here?
Answer: Its value is 1.23.

Question: For “GGGGTACCATGGACCGGTTTTCCCGGTAATCCGTATTTGCA (site GGGGGACCTTG)”, which “recombinant UMI read abundance (log10)” value is on record?
Answer: Its value is 0.

Question: Which “recombinant UMI read abundance (log10)” value does the source give for “TCTAGTTCATGGACCGGTTTTCCCGGTAATCCGTATTTGTG (site TCTAGTTCTCA)” here?
Answer: Its value is 0.0111.

Question: With “CGTGGAGCATGGACCGGTTTTCCCGGTAATCCGTATTTGTT (site CGTGGAGCTAA)” as the sequence, how does the “recombinant UMI read abundance (log10)” value read?
Answer: Its value is 2.02.

Question: With “CTAGCAGCATGGACCGGTTTTCCCGGTAATCCGTATTTGCT (site CCAGCAGCTAG)” as the sequence, how does the “recombinant UMI read abundance (log10)” value read?
Answer: The value was 0.129.

Question: With “CAGTCGACATGGACCGGTTTTCCCGGTAATCCGTATTTGGG (site CATTCGACTCC)” as the sequence, how does the “recombinant UMI read abundance (log10)” value read?
Answer: Its value is 0.0119.

Question: For “AGATAGACATGGACCGGTTTTCCCGGTAATCCGTATTTGCC (site CGATAGACTGG)”, which “recombinant UMI read abundance (log10)” value is on record?
Answer: Its value is 1.36.

Question: With “GAATAGTCATGGACCGGTTTTCCCGGTAATCCGTATTTGGG (site GAATAGTCTCC)” as the sequence, how does the “recombinant UMI read abundance (log10)” value read?
Answer: Its value is 1.13.

Question: Which “recombinant UMI read abundance (log10)” value does the source give for “TGTTCCCCATGGACCGGTTTTCCCGGTAATCCGTATTTGTC (site TGTTCCCCTTA)” here?
Answer: The value was 0.0152.

Question: For “AAAGTCTCATGGACCGGTTTTCCCGGTAATCCGTATTTGCA (site AAAGTCTCTTG)”, which “recombinant UMI read abundance (log10)” value is on record?
Answer: Its value is 3.16.

Question: With “CTCTACTCATGGACCGGTTTTCCCGGTAATCCGTATTTGCT (site CTCTACGCTAG)” as the sequence, how does the “recombinant UMI read abundance (log10)” value read?
Answer: Its value is 0.00255.

Question: For “CCATCGGCATGGACCGGTTTTCCCGGTAATCCGTATTTGTG (site CCATCGGCTCA)”, which “recombinant UMI read abundance (log10)” value is on record?
Answer: Its value is 1.73.
